In US20160106102A1, “KNOWN AND NEW HETEROCYCLIC COMPOUNDS AS PEST CONTROL AGENTS” (BAYER CROPSCIENCE AKTIENGESELLSCHAFT, priority 2013, published 2016):
Read-outs that look alike come from different tables or passages of the source.

What was measured:
Myzus persicae = Myzus persicae - sachet test; assay type: in vivo; details: 100% = all animals killed
Protocol: Myzus persicae—Sachet Test Solvent: 2% by vol. of N-methylpyrrolidone • 2% by vol. of diacetone alcohol To produce an appropriate active ingredient formulation, the active ingredient is mixed with the specified amounts of solvent and the concentrate is diluted to the desired concentration with water. The active ingredient formulation is added to a specific nutrient medium in the desired concentration by pipetting. This plate is sealed and combined with a further plate populated with the green peach aphid (Myzus persicae). After the desired time, the kill in % is determined. 100% means that all the animals have been killed; 0% means that no animals have been killed.

[1] = log P determination by LC-MS in the acidic range; assay type: physicochemical
Source text: The LC-MS determination in the acidic range is effected at pH 2.7 using 0.1% aqueous formic acid and acetonitrile (contains 0.1% formic acid) as eluents, linear gradient from 10% acetonitrile to 95% acetonitrile. Alternatively, the determination is effected in the acidic range at pH 2.3 using 0.1% aqueous phosphoric acid and acetonitrile as eluents; linear gradient from 10% acetonitrile to 95% acetonitrile.

[2] = application rate of 6 ppm in nutrient medium
[3] = application rate of 30 ppm in nutrient medium
[4] = Myzus persicae, application rate of 30 ppm in nutrient medium, read-out: efficacy (kill in %)
[5] = Table 2, compounds of the formula (I-2), acidic range pH 2.7 or pH 2.3
[6] = Table 3, HPLC on reversed-phase column (C 18), 55° C., acidic range (pH 2.7 or pH 2.3)

log P (acid) ([1]; LC-MS in the acidic range)	SMILES	efficacy (kill in %) (Myzus persicae; [2]) [%]	efficacy (kill in %) (Myzus persicae; [3]) [%]	other results
2.28	Cc1cc(NC(=O)c2cccnc2)nn1C(=O)NC(C)c1ccc(F)cc1 (centres unmarked) [Compound I-1-332]	100	100	
2.31	Cc1cc(NC(=O)c2cccnc2)nn1C=C(F)c1ccc(Cl)cn1 [Compound I-1-306]		100	
1.77	Cc1cc(NC(=O)c2cccnc2)nn1CC(F)(F)c1ccc(F)cn1 [Compound I-1-294]		100	
1.61	Cc1cc(NC(=O)c2cccnc2)nn1C(C)(C)C [Compound I-1-347]	80	100	
1.24	CCNC(=O)n1nc(NC(=O)c2cccnc2)cc1C [Compound I-1-288]	100	100	
1.9	Cc1ccc2oc(Cn3nc(NC(=O)c4cccnc4)cc3C)nc2c1 [Compound I-1-353]	100	100	
1.57	Cc1cc(NC(=O)c2cccnc2)nn1Cc1nnc(-c2ccccc2)o1 [Compound I-1-299]	100	100	
2.06	Cc1cc(NC(=O)c2cccnc2)nn1Cc1ccc(Cl)c(Cl)n1 [Compound I-1-301]		100	
1.42	Cc1cc(NC(=O)c2cccnc2)nn1Cc1cn2nc(Cl)ccc2n1 [Compound I-1-351]		100	
1.89	Cc1cc(NC(=O)c2cccnc2)nn1C(=O)NC(C)C(F)(F)F (centres unmarked) [Compound I-1-307]	100	100	
1.93	Cc1cc(NC(=O)c2cccnc2)nn1Cc1csc(C(F)(F)F)n1 [Compound I-1-302]	100	100	
1.29	CCS(=O)(=O)n1nc(NC(=O)c2cccnc2)cc1C [Compound I-1-278]		100	
2.1	Cc1cc(NC(=O)c2cccnc2)nn1C(=O)NCc1cccc(F)c1 [Compound I-1-327]	100	100	
1.45	Cc1cc(NC(=O)c2cccnc2)nn1S(=O)(=O)c1cccnc1 [Compound I-1-280]	80	100	

Further lines, the compound ahead of its results:

SMILES	log P (acid) ([1]; LC-MS in the acidic range)	efficacy (kill in %) (Myzus persicae; [2]) [%]	efficacy (kill in %) (Myzus persicae; [3]) [%]	other results
O=C(Nc1ccn(Cc2ccccc2F)n1)c1cccnc1 [Compound I-1-88]	1.58	100	100	
Cc1nn(-c2ccccn2)nc1NC(=O)c1cccnc1 [Compound I-3-1, N-[5-Methyl-2-(pyridin-2-yl)-2H-1,2,3-triazol-4-yl]nicotinamide]				pest or weed control at 6 ppm (Myzus persicae; Myzus persicae, application rate of 6 ppm in nutrient medium, read-out: efficacy (kill in %)): 100%; pest or weed control at 30 ppm (Myzus persicae; [4]): 100%; chromatographic logP ([1]; reversed-phase HPLC column (C18), pH 2.7, Table 3, HPLC on reversed-phase column (C 18), 55° C., acidic range (pH 2.7 or pH 2.3), read-out: log P (acid)): 1.08; chromatographic logP ([1]; reversed-phase HPLC column (C18), pH 2.7, values given in the synthesis examples and NMR lists, read-out: HPLC-MS: log P): 1.08
Cc1cc(NC(=O)c2cccnc2)nn1Cc1ccc2c(c1)CCCC2 [Compound I-1-158]	2.73		100	
Cc1cc(NC(=O)c2cccnc2)nn1Cc1ncc(Cl)cn1 [Compound I-1-195]	1.23	100	100	
COCn1cnc(NC(=O)c2cccnc2)n1 [Compound I-2-18]			80	log P (acid) [1, 5]: −0.23
O=C(Nc1ncn(Cc2cccc(Cl)c2)n1)c1cccnc1 [Compound I-2-19]			100	log P (acid) [1, 5]: 1.33
Cc1cc(NC(=O)c2cccnc2)nn1Cc1ncccc1Cl [Compound I-1-37]	1.42	100	100	
CC(=O)n1nc(NC(=O)c2cccnc2)cc1C [Compound I-1-120]	1.18	100	100	
O=C(Nc1ccn(Cc2ccccc2)n1)c1cccnc1 [Compound I-1-84]	1.52	100	100	
CCc1nc(NC(=O)c2cccnc2)nn1-c1ccccc1 [Compound I-2-6]			100	log P (acid) [1, 5]: 1.24
COC(=O)c1cc(NC(=O)c2cccnc2)nn1C [Compound I-1-138]	1.05		100	
O=C(Nc1cnn(-c2ncccc2Cl)n1)c1cccnc1 [Compound I-3-16]			100	log P (acid) [1, 6]: 1.32
CC(C)(C)c1ccc(Cn2ccc(NC(=O)c3ccc(Cl)nc3)n2)cc1 [Compound I-1-86]	3.54		100	
Cc1c(Br)c(NC(=O)c2cccnc2)nn1Cc1ncccn1 [Compound I-1-125]	0.98		100	
O=C(Nc1ccn(Cc2cc(F)ccc2F)n1)c1cccnc1 [Compound I-1-90]	1.65	100	100	
Cc1cc(NC(=O)c2cccnc2)nn1C(C)(C)C#N [Compound I-1-219]	1.31	100	100	
Cc1cc(C)nc(-n2nc(NC(=O)c3cncc(F)c3)cc2C)n1 [Compound I-1-132]	2.04		100	
O=C(Nc1ccn(Cc2cccc(OC(F)(F)F)c2)n1)c1cccnc1 [Compound I-1-73]	2.20		100	
O=C(Nc1ccn(Cc2c(F)cccc2F)n1)c1cccnc1 [Compound I-1-68]	1.55		100	

SMILES	log P (acid) ([1]; LC-MS in the acidic range)	efficacy (kill in %) (Myzus persicae; [2]) [%]	efficacy (kill in %) (Myzus persicae; [3]) [%]	other results
Cc1cc(NC(=O)c2cccnc2)nn1C(=O)NCCOc1ccccc1 [Compound I-1-168]	2.18	100	100	
O=C(Nc1ccn(Cc2cccc(C(F)(F)F)c2)n1)c1cccnc1 [Compound I-1-71]	2.07		100	
CC(C)(C)c1ccc(Cn2ccc(NC(=O)c3cccnc3)n2)cc1 [Compound I-1-75]	2.68		100	
CCc1cc(NC(=O)c2cccnc2)nn1Cc1ccccc1 [Compound I-1-35, N-(1-Benzyl-5-ethyl-1H-pyrazol-3-yl)nicotinamide]				pest or weed control at 30 ppm (Myzus persicae; [4]): 100%; chromatographic logP ([1]; pH 2.7, LC-MS in the acidic range, read-out: log P (acid)): 2.03; chromatographic logP ([1]; pH 2.7, values given in the synthesis examples and NMR lists, read-out: HPLC-MS: log P): 2.03
Cc1cc(NC(=O)c2cccnc2)nn1-c1cccc(C#N)c1 [Compound I-1-217]	1.59	100	100	
CCOC(=O)c1ccc(Cn2ccc(NC(=O)c3cccnc3)n2)cc1 [Compound I-1-92]	1.85		100	
Cc1cc(NC(=O)c2ccnnc2)nn1-c1ccccn1 [Compound I-1-249]	1.83		100	
Cc1cc(NC(=O)c2cncc(F)c2)nn1CC(F)(F)F [Compound I-1-135]	1.79		100	
CC(C)n1ncc(NC(=O)c2cccnc2)n1 [Compound I-3-10]			100	log P (acid) [1, 6]: 1.09
Cc1ccccc1Cn1cnc(NC(=O)c2cccnc2)n1 [Compound I-2-23]			100	log P (acid) [1, 5]: 1.23
O=C(Nc1cnn(-c2ncccc2Br)n1)c1cccnc1 [Compound I-3-7]		80	100	log P (acid) [1, 6]: 1.33
CCc1cc(NC(=O)c2cccnc2)nn1Cc1ccc(Cl)nc1 [Compound I-1-58]	1.67	80	100	
Cc1c(C#N)c(NC(=O)c2cccnc2)nn1Cc1ncccn1 [Compound I-1-194]	0.63		100	
O=C(Nc1cc(Cl)n(Cc2ncccn2)n1)c1cccnc1 [Compound I-1-197]	1.04	100	100	
Cc1cc(NC(=O)c2cccnc2)nn1-c1ccccc1Cl [Compound I-1-213]	1.86		100	
Cc1cc(NC(=O)c2cccnc2)nn1CC(=O)Cc1ccccc1Cl [Compound I-1-247]	1.92	100	100	
Cc1cc(NC(=O)c2cccnc2)nn1-c1ccc(C(F)(F)F)cn1 [Compound I-1-45]	2.64	100	100	
O=C(Nc1nn(Cc2ncccn2)cc1F)c1cccnc1 [Compound I-1-267]	0.42		100	
